Source: patent publication USRE39113E1 (priority 1998, dated 2006)

What was measured:
[1] = test system: hot-plate assay in mouses; assay: hot-plate assay in mice; assay type: in vivo, Swiss albino mice; conditions: ip, hot plate 55° C., licking of the paws
Method: The analgesic activity of the products object of the invention have been studied in several assays using the Swiss albino mice as the experimental animal. The assay of contortions induced by phenylbenzoquinone, the hot-plate assay and the hot-point assay are now described. The examples that are presented by way of illustration describe some of the pharmacological assays and should not limit the scope of the invention in any way.
The hot-plate assay was carried out following the method described by M. Ocana et al. (Europ J. Pharmacol. 186: 377-378, 1990). The product under study was administered s.c. or i.p. and 30 minutes later the analgesic effect was registered. For this the animals were placed on a metallic surface kept at 50° C. or 55° C. and the time registered (latency) until the licked their hind legs and a jump. The analgesic activity was calculated at each dose, comparing the potency of the treated group with the control group. Using the results obtained the ED-50 was calculated.

[2] = test system: mouse's tail; assay: animal or person; assay type: in vivo, Swiss albino mice; conditions: sc

Structure (SMILES)	ED50 [2] [mg/kg]	also measured
Clc1ccc(C2=CCN(CCCCn3cc(Cl)cn3)CC2)cc1 [Example 47a]		Δ Latency ([1]; 40 mg/kg): 5 s
Clc1ccc(C2=CCN(CCCCn3ccnc3-c3ccccc3)CC2)cc1 [Example 63a]	70	
C1=C(c2ccccc2)CCN(CCCCn2cccc2)C1 [Example 51a]	5	
Brc1ccc(C2=CCN(CCCCn3cncn3)CC2)cc1 [Example 59a]	60	
CC(C)=CCN1CCC2(C)c3cc(O)ccc3CC1C2C (centres unmarked) [Pentazocine, reference compound]		Δ Latency ([1]; 10 mg/kg): 6 s
